One assay deals with cyclin A mRNA. In words: Ribonuclease protection assay (RPA) of cyclin A mRNA expression in EC. It is filed as cell-based, Bovine. Conditions: pre-treatment of EC with Y27632. As for the experimental part: FIGS. 1A-D are explained in more detail as follows. Synchronized ECs were serum stimulated in the presence or absence of TNF for indicated times. Total cellular RNA was isolated and was analyzed by RPA for cyclin A, cyclin B and cyclin D1 expression. A representative autoradiograph is shown (FIG. 1A). mRNA expression of cyclins was corrected to that of GAPDH and quantified by densitometric analysis (FIGS. 1B-D). Data represent average of 3 similar experiments.
FIGS. 12A-C are explained in more detail as follows. (FIG. 12A) Representative PCR gel photograph showing amplification of 200 bp cyclin A promoter emcompassing CHR elements from ant-ezrin antibody immunoprecipitated chromatin. (FIG. 12B) BAECs co-transfected with cyclin A promoter-reporter construct and either wt or dnEzrin constructs and cultured in presence or absence of TNF for 24 h before were analyzed for luciferase activity. Bar graph represents average promoter activity from 3 similar experiments (*p<0.01). (FIG. 12C) Total RNA from empty vector wt or dnEzrin transfected cells under control or TNF-treatment conditions was evaluated for cyclin A mRNA expression by ribonuclease protection assays. Representative autoradiograph is shown.
3. […]

Assay [1] relates to CDE-CHR elements of the cyclin A promoter. In words: EMSA of EC nuclear extracts with CDE-CHR / CHR oligonucleotides. The class given is cell-based, Bovine. (In general: A gel shift assay detects complexes by their altered migration in electrophoresis.)
Another assay deals with EC proliferation. Kind of assay: Thymidine uptake assay, EC proliferation. It is filed as cell-based, Bovine. As for the experimental part: Having documented TNF-induced nuclear translocation and the ability of ezrin to bind to cyclin A CHR elements, the functional consequences of TNF-mediated ezrin modulation in EC was determined. To evaluate the effect of ezrin over-expression in the presence of TNF on cell proliferation, EC were transiently transfected with either wtEzrin or dnEzrin expression vectors. Cells were treated or not with TNF and BrdU (50 μg/mL) was added to all cultures for 6 hours. […] Tritiated thymidine uptake assays were performed as an independent measure of cell proliferation in similarly transfected and treated cells and corroborated the findings of BrdU incorporation (FIG. 11C).
FIGS. 11A-E are explained in more detail as follows. Quiescent BAECs transiently transfected with empty vector, wild type and dominant negative ezrin were cultured in the absence (control) or presence of 20 ng/mL TNF for 24 hrs. Cells were labeled with BrdU (50 μg/mL) for last 6 hrs of culture. […] BrdU positive cells were counted in at least 6 different visual fields. […]
To provide further evidence that the improvement in EC function attained by inhibition of ROCK-2 was mediated by ezrin, we performed rescue experiments. EC transiently transfected with wtEzrin and treated with TNF were co-treated with increasing doses of Y27632 and cell proliferation was determined by thymidine incorporation.

Another assay concerns the target RhoA kinase (ROCK-2) (Bos taurus, UniProt Q28021). Kind of assay: Western blot for ROCK-2 in EC lysates. The class given is cell-based, Bovine. Conditions: co-treatment with Y27632 20 micromolar at the time of TNF exposure. For orientation: A western blot detects proteins with antibodies after separation by electrophoresis.
For another assay, the system named is ezrin phosphorylation. Kind of assay: Western blot for phospho-ezrin in EC lysates. It is filed as cell-based, Bovine. Conditions: Y27632 20 μM, all experimental time points.
Assay [2] concerns CHR oligonucleotides (cyclin A promoter). In words: EMSA of recombinant protein with CHR oligonucleotides. It is filed as binding. Conditions: recombinant protein 1 μg. An excerpt: Nuclear extracts from control and TNF-treated EC were mixed with biotin-labeled CHR oligonucleotides and the bound proteins were captured on avidin-agarose beads. Eluted proteins from beads were subjected to Western blot analysis for ezrin. […] Specificity of CHR-ezrin binding was further confirmed by EMSA assays using recombinant-ezrin protein (GST-ezrin). […] We next evaluated the effect of TNF-induced ezrin binding to cyclin A-CHR by dominant-negative ezrin over-expression. EC were transiently transfected with wild-type (wtEzrin) and dominant negative (dnEzrin) ezrin expression vector. […] That TNF-induced modulation of ezrin up-regulates CHR-binding activity was further evident from ezrin immunodepletion experiments. Endogenous ezrin was immunodepleted from control and TNF-treated nuclear extracts by treating extracts with anti-ezrin antibodies over 5 rounds. Immunodepleted extracts were then analyzed by EMSA for CHR-binding activity.
FIGS. 9A-D are explained in more detail as follows. […] Eluted proteins from beads were analyzed for ezrin protein in western blots. […] (FIG. 9C) Nuclear extracts from control and TNF-treated BAECs, transfected with wild type or dominant negative ezrin, were evaluated CHR binding activity in EMSAs. […] Depleted extracts alone or depleted extracts from TNF treated cells reconstituted with GST-ezrin were then analyzed for CHR binding activity. […]

The subject of another assay is cyclin A CHR elements. Kind of assay: South-western analysis and UV cross-linking of nuclear proteins with CDE-mCHR or mCDE-CHR probes. It is filed as cell-based, Bovine. Conditions: cycloheximide 5 μg/mL along with TNF. An excerpt:
Nuclear proteins from asynchronously growing BAEC with or without TNF were probed with ^32P-labeled CDE-mCHR or mCDE-CHR oligonucleotides.
To confirm that 84 kDa protein in TNF treated extracts identified in FIGS. 8A-B, does bind to CHR elements, we performed UV cross-linking experiments. EMSA reactions were assembled as before followed by UV cross-linking. The reactions were then boiled in SDS loading buffer and resolved on 12% SDS-PAGE. In reactions probed with CDE-mCHR the 35-kDa protein seen before was observed again (FIGS. 8C-D). In reactions probed with mCDE-CHR probe, the previously identified (FIGS. 8A-B) 39-kDa protein was found cross-linked to oligonucleotide. Similarly, the 84-kDa protein from TNF treated extract cross-linked with mCDE-CHR probe, further confirming the southwestern results.
FIGS. 8A-E are explained in more detail as follows. FIGS. 8A-B. Representative autoradiograph of south-western analysis. Nuclear proteins from asynchronously growing EC with or with out TNF treatment were size fractionated on a 12% SDS-PAGE gel, transferred to PVDF membrane and renatured. Membranes were then incubated with radio-labeled CDE-mCHR or mCDE-CHR oligonucleotide. Membranes were washed, air dried and autoradiographed. […]

Sequence of RhoA kinase (ROCK-2) (Q28021 whole entry): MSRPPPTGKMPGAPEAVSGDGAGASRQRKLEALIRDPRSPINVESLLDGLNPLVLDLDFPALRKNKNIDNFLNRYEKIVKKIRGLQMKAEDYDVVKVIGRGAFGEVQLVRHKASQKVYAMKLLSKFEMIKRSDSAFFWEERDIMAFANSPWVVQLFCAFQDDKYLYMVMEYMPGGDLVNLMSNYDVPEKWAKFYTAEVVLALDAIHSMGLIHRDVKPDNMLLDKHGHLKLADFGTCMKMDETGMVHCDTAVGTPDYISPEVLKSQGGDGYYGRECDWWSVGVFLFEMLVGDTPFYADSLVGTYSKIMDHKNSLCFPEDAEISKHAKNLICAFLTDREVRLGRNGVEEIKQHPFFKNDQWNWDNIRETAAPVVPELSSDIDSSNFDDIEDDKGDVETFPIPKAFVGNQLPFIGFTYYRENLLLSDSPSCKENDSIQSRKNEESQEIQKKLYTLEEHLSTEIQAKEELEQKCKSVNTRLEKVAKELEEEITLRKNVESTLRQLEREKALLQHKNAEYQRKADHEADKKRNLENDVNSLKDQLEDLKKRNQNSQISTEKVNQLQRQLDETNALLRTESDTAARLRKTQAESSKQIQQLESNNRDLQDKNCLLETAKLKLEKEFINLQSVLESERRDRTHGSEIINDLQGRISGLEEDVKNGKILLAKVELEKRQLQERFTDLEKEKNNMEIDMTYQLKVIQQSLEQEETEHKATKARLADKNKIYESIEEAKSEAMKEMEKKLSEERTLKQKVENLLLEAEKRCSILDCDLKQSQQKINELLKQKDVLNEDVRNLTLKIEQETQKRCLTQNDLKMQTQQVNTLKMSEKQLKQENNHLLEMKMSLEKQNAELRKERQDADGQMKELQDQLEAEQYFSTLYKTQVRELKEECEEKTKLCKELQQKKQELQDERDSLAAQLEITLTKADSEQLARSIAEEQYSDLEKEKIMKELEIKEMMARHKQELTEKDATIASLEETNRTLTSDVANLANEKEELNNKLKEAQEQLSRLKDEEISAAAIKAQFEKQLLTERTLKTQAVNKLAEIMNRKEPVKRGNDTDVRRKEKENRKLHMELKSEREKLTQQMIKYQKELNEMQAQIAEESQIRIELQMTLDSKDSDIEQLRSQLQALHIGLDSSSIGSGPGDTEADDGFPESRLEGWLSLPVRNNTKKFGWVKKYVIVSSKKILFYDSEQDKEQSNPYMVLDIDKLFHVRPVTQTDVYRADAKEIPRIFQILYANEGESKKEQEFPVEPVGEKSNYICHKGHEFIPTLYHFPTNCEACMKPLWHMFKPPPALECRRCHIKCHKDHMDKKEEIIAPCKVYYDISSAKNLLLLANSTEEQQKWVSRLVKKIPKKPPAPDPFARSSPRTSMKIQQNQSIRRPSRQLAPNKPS

`C[C@@H](N)[C@H]1CC[C@H](C(=O)Nc2ccncc2)CC1` [Y27632]: the “TNF-mediated inhibition of cyclin A mRNA expression” value in the assay with cyclin A mRNA is on record as “reversed”. In addition, the “TNF-induced CHR binding activity” value in assay [1] (nuclear extracts from EC co-treated with TNF and Y27632) was “significantly reduced”. Also, the “ezrin/TNF mediated inhibition of EC proliferation” value with EC proliferation (EC transfected with wtEzrin, treated with TNF, increasing doses of Y27632) is given as “dose dependently reversed”. For the same molecule, the “inhibitory effect of TNF on EC proliferation” value in the assay with EC proliferation (treatment of EC with Y27632 in the presence of TNF) is listed as “partially abrogated”. In addition, the “ROCK-2 induction by TNF” value on RhoA kinase (ROCK-2) is “completely abolished”. Moreover, in the assay on ezrin phosphorylation, the TNF-induced ezrin phosphorylation result is listed as “completely inhibited”.
As for “Recombinant ezrin: Recombinant human ezrin protein (GST-ezrin)”, the “CHR-binding activity of ezrin-immunodepleted TNF-extract” value in assay [1] (recombinant ezrin added back to the depleted TNF-extract) was “significantly increased”. Also, the “complex formation with CHR oligonucleotides” value in assay [2] is given as “formed complex”.
Consider `C[C@@H]1C[C@@H]([C@H](O)CC2CC(=O)NC(=O)C2)C(=O)[C@@H](C)C1` [cycloheximide], for which the “induction of 84-kDa protein by TNF” value with cyclin A CHR elements is given as “failed to induce the protein”.

B1: recombinant-DP1 protein: control recombinant-DP1 protein used in EMSA (protein, UniProt Q14186 1-410, looked up)
Transcription factor Dp-1: MAKDAGLIEANGELKVFIDQNLSPGKGVVSLVAVHPSTVNPLGKQLLPKTFGQSNVNIAQQVVIGTPQRPAASNTLVVGSPHTPSTHFASQNQPSDSSPWSAGKRNRKGEKNGKGLRHFSMKVCEKVQRKGTTSYNEVADELVAEFSAADNHILPNESAYDQKNIRRRVYDALNVLMAMNIISKEKKEIKWIGLPTNSAQECQNLEVERQRRLERIKQKQSQLQELILQQIAFKNLVQRNRHAEQQASRPPPPNSVIHLPFIIVNTSKKTVIDCSISNDKFEYLFNFDNTFEIHDDIEVLKRMGMACGLESGSCSAEDLKMARSLVPKALEPYVTEMAQGTVGGVFITTAGSTSNGTRFSASDLTNGADGMLATSSNGSQYSGSRVETPVSYVGEDDEEDDDFNENDEDD
Consider B1, for which the “complex formation with CHR oligonucleotides” value in assay [2] was “did not form the complex”.

The values are drawn from patent publication US20040105860A1, “Cell modulation using a cytoskeletal protein” (priority 2002, published 2004).
